Assay results from ChEMBL document CHEMBL4507269, “Data for DCP probe BAY-386” (2021).
Active and inactive are the calls of the source. The rule behind the calls is not given here.

Assays:
[1] = target: Mu-type opioid receptor (Homo sapiens) (UniProt P35372); assay: mu (MOP) (h) Eurofins-Cerep Cellular and Nuclear Receptor Functional Assays; settings: Compound concentration 10.0 uM
[2] = target: Muscarinic acetylcholine receptor M3 (Homo sapiens) (UniProt P20309); settings: Compound concentration 10.0 uM
Chain of Muscarinic acetylcholine receptor M3 (Homo sapiens) (P20309 whole entry, looked up): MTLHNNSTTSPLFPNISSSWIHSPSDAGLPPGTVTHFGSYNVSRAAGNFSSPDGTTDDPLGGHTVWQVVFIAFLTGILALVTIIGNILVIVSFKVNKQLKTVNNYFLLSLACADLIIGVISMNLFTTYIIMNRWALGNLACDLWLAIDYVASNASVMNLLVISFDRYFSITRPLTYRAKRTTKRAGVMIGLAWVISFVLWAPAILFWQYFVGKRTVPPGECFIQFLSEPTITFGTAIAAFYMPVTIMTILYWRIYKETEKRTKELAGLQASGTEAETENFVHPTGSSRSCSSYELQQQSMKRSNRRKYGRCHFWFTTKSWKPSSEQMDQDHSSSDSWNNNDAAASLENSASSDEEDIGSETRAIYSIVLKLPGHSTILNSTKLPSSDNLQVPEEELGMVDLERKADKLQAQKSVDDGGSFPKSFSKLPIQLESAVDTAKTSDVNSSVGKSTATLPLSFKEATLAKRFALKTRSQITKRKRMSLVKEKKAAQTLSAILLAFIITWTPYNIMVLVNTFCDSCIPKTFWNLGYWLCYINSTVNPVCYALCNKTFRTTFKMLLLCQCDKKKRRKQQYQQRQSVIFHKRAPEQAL

[3] = target: Sigma intracellular receptor 2 (Homo sapiens, UniProt Q5BJF2); assay: GPCRScan assay: inhibition of Sigma 2; set-up: radioligand conc. used [nm] 5.0, parental cells HEKT
Chain of Sigma intracellular receptor 2 (Q5BJF2 whole entry): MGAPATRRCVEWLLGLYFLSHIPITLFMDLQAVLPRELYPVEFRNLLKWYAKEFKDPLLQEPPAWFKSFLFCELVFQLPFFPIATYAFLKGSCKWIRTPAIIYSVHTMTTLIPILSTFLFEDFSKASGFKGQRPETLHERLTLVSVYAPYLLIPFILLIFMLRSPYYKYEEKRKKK

Platelet [4] = assay: Inhibition of platelet aggregation (human plasma, TRAP-6) (IC90)
[5] = target: T1, Proteinase-activated receptor 1 (Homo sapiens, UniProt P25116); assay: Binding assay (platelet membranes)
T1 sequence (P25116 whole entry): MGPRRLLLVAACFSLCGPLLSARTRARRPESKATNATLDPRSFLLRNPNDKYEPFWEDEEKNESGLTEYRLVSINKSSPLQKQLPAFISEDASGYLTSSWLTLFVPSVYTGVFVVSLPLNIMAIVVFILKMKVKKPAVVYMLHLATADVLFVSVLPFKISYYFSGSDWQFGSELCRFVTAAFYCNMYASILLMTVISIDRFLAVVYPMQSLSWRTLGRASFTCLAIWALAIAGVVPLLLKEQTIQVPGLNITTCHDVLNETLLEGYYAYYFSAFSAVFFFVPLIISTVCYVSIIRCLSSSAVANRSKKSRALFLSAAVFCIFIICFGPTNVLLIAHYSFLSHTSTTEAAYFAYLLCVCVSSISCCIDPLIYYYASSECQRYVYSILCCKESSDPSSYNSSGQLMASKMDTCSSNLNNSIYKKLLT

[6] = target: GABA-A receptor; anion channel (Rattus norvegicus) (UniProt O09028+P15431+P18506+P18508+P19969+P20236+P23574+P23576+P28471+P28473+P30191+P62813+P63079+P63138+Q91ZM7+Q9ES14); settings: Compound concentration 10.0 uM
[7] = target: Sodium-dependent dopamine transporter (Homo sapiens) (UniProt Q01959); settings: Compound concentration 10.0 uM
Chain of Sodium-dependent dopamine transporter (Homo sapiens) (Q01959 whole entry): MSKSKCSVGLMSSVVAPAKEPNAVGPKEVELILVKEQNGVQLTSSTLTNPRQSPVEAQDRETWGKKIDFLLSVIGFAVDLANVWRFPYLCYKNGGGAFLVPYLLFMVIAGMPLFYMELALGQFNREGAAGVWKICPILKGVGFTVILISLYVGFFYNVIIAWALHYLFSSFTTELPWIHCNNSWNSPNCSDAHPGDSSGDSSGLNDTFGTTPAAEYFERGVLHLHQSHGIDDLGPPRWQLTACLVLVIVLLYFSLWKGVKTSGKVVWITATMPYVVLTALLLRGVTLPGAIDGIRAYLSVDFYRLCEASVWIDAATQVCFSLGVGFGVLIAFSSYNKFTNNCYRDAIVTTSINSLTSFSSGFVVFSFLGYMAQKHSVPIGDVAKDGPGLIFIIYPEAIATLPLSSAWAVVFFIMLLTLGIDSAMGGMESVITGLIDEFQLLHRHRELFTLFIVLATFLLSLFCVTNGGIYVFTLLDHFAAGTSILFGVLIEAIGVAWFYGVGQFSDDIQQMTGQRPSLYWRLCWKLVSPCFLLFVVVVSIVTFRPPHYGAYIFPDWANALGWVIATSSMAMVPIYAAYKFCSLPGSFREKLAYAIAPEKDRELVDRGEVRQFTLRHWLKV

Rattus norvegicus = organism: Rattus norvegicus; assay: Inhibition of Rolipram at 10 µM in the Eurofins-Panlabs radioligand binding assay (Eurofins_assay_268811); type: protein assay; set-up: ligand concentration 1.8 nM; settings: Compound concentration 10.0 uM
Mus musculus = organism: Mus musculus; assay: Inhibition of Phorbol Ester at 10 µM in the Eurofins-Panlabs radioligand binding assay (Eurofins_assay_264500); set-up: ligand concentration 3 nM; settings: Compound concentration 10.0 uM
[8] = target: Epidermal growth factor receptor (Homo sapiens) (UniProt P00533); assay: Inhibition of Epidermal Growth Factor (EGF) at 10 µM in the Eurofins-Panlabs radioligand binding assay (Eurofins_assay_225510); settings: Compound concentration 10.0 uM
[9] = target: B1 bradykinin receptor (Homo sapiens) (UniProt P46663); assay: Inhibition of Bradykinin B1 at 10 µM in the Eurofins-Panlabs radioligand binding assay (Eurofins_assay_212510); settings: Compound concentration 10.0 uM
Chain of B1 bradykinin receptor (Homo sapiens) (P46663 whole entry): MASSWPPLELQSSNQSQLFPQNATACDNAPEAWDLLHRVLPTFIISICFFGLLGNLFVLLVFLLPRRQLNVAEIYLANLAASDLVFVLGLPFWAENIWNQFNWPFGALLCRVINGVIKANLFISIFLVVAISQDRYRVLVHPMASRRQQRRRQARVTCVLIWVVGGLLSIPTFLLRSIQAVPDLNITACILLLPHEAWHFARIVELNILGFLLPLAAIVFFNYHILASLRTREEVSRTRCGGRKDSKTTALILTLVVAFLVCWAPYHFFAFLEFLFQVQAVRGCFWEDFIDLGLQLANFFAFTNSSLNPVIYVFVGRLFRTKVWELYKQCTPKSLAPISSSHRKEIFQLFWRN

[10] = target: T2, 5-hydroxytryptamine receptor 1A (Homo sapiens) (UniProt P08908); settings: Compound concentration 10.0 uM
T2 sequence (whole entry): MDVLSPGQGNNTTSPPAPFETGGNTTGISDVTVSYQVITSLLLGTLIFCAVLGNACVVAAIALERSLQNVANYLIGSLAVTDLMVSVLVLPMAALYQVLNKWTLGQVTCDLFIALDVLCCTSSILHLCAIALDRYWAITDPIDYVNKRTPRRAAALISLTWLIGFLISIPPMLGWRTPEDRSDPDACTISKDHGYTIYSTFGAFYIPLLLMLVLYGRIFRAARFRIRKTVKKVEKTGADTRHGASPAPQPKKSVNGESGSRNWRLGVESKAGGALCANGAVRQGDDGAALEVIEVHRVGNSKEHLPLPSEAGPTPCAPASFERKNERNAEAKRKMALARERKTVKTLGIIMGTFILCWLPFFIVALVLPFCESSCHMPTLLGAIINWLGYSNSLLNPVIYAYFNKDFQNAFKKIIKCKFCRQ

[11] = target: Histamine H1 receptor (Homo sapiens) (UniProt P35367); settings: Compound concentration 10.0 uM
Chain of Histamine H1 receptor (Homo sapiens) (P35367 whole entry): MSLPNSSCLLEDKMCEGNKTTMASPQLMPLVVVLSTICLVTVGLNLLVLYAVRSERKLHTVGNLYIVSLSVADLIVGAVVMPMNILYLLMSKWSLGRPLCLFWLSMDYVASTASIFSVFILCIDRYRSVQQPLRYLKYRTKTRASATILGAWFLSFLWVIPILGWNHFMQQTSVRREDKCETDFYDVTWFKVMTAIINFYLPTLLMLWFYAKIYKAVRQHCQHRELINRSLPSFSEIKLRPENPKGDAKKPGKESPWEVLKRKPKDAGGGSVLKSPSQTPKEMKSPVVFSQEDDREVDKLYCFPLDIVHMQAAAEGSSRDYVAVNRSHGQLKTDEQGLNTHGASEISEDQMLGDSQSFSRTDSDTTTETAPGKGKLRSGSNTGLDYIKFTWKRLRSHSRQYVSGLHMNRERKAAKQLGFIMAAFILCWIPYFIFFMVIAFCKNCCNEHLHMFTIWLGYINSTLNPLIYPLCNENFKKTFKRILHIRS

[12] = target: Gamma-aminobutyric acid type B receptor subunit 1 (Homo sapiens) (UniProt Q9UBS5); assay: Inhibition of GABAB1A at compound concentration of 10.0 uM in the Eurofins-Panlabs radioligand binding assay (Eurofins_assay_228610); set-up: ligand concentration 4 nM; settings: Compound concentration 10.0 uM
Chain of Gamma-aminobutyric acid type B receptor subunit 1 (Homo sapiens) (Q9UBS5 whole entry): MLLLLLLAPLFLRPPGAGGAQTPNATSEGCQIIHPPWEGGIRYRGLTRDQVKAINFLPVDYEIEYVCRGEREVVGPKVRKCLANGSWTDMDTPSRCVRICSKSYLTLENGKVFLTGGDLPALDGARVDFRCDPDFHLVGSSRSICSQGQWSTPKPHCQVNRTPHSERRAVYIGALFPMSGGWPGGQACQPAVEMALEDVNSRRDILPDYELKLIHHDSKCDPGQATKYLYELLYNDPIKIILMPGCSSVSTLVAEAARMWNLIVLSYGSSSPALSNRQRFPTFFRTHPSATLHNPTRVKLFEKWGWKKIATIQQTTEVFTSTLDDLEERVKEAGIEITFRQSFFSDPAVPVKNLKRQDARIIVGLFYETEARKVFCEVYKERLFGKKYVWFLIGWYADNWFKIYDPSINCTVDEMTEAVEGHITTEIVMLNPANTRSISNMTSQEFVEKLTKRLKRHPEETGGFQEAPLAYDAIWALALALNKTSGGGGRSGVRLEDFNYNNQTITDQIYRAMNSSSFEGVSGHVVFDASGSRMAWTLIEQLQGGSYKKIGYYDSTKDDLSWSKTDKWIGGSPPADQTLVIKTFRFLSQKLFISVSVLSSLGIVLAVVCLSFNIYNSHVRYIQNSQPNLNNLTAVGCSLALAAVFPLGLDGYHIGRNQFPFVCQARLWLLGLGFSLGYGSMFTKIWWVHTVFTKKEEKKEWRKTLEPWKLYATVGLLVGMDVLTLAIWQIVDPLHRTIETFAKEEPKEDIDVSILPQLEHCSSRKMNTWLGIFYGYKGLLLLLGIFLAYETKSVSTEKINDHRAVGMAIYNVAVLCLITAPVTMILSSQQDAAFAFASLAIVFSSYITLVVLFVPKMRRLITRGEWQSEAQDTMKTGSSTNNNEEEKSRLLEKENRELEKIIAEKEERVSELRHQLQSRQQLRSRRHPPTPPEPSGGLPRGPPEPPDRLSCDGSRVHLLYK

[13] = target: B2 bradykinin receptor (Homo sapiens) (UniProt P30411); assay: Bradykinin B2 Eurofins-Panlabs radioligand binding assay; settings: Compound concentration 10.0 uM
Chain of B2 bradykinin receptor (Homo sapiens) (P30411 whole entry): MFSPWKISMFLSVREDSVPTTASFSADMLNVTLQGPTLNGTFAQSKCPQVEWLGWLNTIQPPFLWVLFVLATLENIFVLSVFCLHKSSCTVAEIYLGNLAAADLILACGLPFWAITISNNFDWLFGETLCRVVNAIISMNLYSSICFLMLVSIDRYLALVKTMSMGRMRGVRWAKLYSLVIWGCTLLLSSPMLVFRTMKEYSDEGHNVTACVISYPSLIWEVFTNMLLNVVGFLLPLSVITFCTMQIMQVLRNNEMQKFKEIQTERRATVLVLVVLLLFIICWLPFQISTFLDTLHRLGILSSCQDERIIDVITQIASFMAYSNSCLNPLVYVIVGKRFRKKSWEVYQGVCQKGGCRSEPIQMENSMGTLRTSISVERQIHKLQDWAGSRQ

[14] = target: 5-hydroxytryptamine receptor 5A (Homo sapiens) (UniProt P47898); settings: Compound concentration 10.0 uM
Chain of 5-hydroxytryptamine receptor 5A (Homo sapiens) (P47898 whole entry): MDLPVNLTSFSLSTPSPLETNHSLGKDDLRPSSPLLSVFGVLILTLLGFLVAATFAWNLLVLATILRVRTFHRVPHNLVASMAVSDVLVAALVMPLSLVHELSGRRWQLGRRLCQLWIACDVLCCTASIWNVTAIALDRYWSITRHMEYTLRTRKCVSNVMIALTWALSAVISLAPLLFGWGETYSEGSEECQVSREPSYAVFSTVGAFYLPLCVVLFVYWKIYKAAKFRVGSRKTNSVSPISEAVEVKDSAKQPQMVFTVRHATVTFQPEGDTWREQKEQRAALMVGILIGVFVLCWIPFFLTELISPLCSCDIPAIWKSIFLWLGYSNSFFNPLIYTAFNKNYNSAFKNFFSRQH

[15] = target: Cannabinoid receptor 1 (Homo sapiens) (UniProt P21554); settings: Compound concentration 10.0 uM
Chain of Cannabinoid receptor 1 (Homo sapiens) (P21554 whole entry): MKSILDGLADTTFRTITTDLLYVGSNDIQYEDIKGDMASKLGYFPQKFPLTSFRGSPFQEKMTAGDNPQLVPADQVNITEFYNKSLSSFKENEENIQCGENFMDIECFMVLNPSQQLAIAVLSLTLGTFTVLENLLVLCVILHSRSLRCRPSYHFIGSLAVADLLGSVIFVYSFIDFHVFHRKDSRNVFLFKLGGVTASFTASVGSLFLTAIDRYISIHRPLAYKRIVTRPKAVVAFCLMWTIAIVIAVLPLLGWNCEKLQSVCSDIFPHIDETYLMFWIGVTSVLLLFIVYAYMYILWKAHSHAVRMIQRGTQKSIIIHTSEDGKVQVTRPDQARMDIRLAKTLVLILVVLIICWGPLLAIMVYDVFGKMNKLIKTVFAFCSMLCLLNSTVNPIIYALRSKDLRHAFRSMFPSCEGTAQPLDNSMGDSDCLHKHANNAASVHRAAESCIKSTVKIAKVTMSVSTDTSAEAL

[16] = target: T3, Muscarinic acetylcholine receptor M1 (Homo sapiens) (UniProt P11229); settings: Compound concentration 10.0 uM
T3 sequence (whole entry): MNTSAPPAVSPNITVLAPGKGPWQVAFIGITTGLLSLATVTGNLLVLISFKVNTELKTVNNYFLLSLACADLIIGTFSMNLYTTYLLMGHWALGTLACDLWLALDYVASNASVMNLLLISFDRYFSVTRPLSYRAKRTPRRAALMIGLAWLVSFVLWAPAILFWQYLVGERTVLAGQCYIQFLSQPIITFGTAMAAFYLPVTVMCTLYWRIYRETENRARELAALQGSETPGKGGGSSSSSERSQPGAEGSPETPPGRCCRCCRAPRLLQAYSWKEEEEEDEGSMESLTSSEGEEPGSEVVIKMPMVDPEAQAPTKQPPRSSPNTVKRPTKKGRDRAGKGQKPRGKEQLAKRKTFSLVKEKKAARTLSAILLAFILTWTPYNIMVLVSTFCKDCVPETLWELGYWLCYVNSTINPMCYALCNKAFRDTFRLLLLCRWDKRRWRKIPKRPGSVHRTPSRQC

Platelet [17] = assay: Inhibition of platelet aggregation (human plasma, ADP, Collagen); type: cell-based

Chain of Mu-type opioid receptor (Homo sapiens) (P35372 whole entry): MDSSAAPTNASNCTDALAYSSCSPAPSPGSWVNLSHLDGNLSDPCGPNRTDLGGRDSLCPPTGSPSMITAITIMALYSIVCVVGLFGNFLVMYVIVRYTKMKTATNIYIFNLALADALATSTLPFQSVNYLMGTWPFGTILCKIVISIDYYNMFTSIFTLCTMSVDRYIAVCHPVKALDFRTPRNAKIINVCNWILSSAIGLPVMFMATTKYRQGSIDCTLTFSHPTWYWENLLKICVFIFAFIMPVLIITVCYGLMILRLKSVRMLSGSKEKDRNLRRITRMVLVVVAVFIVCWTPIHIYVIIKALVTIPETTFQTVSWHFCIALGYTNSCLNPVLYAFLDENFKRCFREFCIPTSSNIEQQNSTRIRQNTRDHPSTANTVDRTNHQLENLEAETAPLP

For Cc1noc([C@H]2C[C@@H](c3ccc(C(F)(F)F)cc3)CN(C(=O)N3CCS(=O)(=O)C3)C2)n1 [BAY-448], the % Inhibition of Control Agonist Response (Mean n=2) [1] was -4.8% and the % of Control Agonist Response (Mean n=2) [1] was 36%.

O=C(N1CCS(=O)(=O)CC1)N1C[C@H](c2ccc(OC(F)(F)F)cc2)C[C@H](c2nc(C3CC3)no2)C1 [BAY-386] showed an inhibition [2] of -2%, a Ki ([3]; read-out: Ki) of 1200 nM and a Ki ([3]; read-out: pKi (converted)) of 1150 nM. The IC90 (Platelet [4]) was 680 nM, the IC50 [5] was 56 nM (active) and the inhibition [6] was -3%. For the same compound, the inhibition [7] was 10%, the inhibition (Rattus norvegicus) was 3% and the inhibition (Mus musculus) was 5%. It also gave an inhibition [8] of -7%, an inhibition [9] of 6% and an inhibition [10] of -9%. The inhibition [11] was 0%, the inhibition [12] was 10% and the inhibition [13] was 11%. The inhibition [14] was 10%, the inhibition [15] was 88% and the inhibition [16] was -3%. The IC50 (Platelet [17]) was > 100000 nM (not active).
